Paper PMC11235165, “Delocalized quinolinium-macrocyclic peptides, an atypical chemotype for CNS penetration” (Science Advances, 2024)
Like-named read-outs stand apart in the source and are kept apart here.

What was measured:
Cyclophilin A (CypA) = Cyclophilin A (CypA) (Homo sapiens, UniProt P62937); experiment: Fluorescence polarization cyclophilin A binding assay
CypD = CypD (Homo sapiens, UniProt P30405); experiment: Fluorescence polarization cyclophilin D binding assay
[1] = Pharmacokinetic study, plasma and brain levels by LC-MS/MS; details: mice; for level at 1 h / level at 4 h: ABH, mouse, ip;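 for all read-outs here: ABH mice, four per group, dosed intraperitoneally, plasma and brain taken at set times after euthanasia, drug levels quantified by LC-MS/MS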
hERG = hERG (Homo sapiens, UniProt Q12809); experiment: hERG inhibition; format: biochemical; details: for inhibition at 25 µM: hERG (% inhibition at 25 μM)
[2] = Hepatocyte clearance (human); format: in vitro ADME; details: human hepatocytes
in vivo = details: ABH, mouse, ip, 10 mg/kg; for level at 24 h: Brain concentrations at 24 hours
[3] = Plasma protein binding (fraction unbound); format: in vitro ADME; details: read-out: Plasma protein (fu)
[4] = Hepatocyte clearance (mouse); format: in vitro ADME; details: mouse hepatocytes
[5] = mouse, in vivo, ip, 10 mg/kg
[6] = mouse, in vivo, ip, 10 mg/kg; remark: listed apart in the source
[7] = tested on: mitochondrial permeability transition pore (mPTP); experiment: Calcium retention capacity (CRC) assay in isolated liver mitochondria; format: biochemical, rat; details: Table S4 / Fig. S2; rat liver mitochondria; 500 nM; (Treated-NonTreated)/NonTreated)*100
[8] = Table S7, focused SAR set, read-out: CypD Ki
[9] = Table S2, 4-oxa substituted and O-linked quinolinium salts, fluorescence polarization, read-out: Ki (nM), Cyclophilin A binding affinity

CypD, sequence (P30405 30-207): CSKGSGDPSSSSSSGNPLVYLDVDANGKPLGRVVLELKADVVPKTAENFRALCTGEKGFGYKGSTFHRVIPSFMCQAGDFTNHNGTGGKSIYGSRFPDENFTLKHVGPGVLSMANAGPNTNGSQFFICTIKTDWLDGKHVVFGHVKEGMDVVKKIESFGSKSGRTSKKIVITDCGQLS
Cyclophilin A (CypA), sequence (P62937 whole entry): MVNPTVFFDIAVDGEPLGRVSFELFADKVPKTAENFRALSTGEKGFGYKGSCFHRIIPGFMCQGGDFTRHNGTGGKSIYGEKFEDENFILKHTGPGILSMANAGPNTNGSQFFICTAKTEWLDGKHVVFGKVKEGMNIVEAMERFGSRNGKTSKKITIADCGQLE
hERG, sequence (Q12809 whole entry): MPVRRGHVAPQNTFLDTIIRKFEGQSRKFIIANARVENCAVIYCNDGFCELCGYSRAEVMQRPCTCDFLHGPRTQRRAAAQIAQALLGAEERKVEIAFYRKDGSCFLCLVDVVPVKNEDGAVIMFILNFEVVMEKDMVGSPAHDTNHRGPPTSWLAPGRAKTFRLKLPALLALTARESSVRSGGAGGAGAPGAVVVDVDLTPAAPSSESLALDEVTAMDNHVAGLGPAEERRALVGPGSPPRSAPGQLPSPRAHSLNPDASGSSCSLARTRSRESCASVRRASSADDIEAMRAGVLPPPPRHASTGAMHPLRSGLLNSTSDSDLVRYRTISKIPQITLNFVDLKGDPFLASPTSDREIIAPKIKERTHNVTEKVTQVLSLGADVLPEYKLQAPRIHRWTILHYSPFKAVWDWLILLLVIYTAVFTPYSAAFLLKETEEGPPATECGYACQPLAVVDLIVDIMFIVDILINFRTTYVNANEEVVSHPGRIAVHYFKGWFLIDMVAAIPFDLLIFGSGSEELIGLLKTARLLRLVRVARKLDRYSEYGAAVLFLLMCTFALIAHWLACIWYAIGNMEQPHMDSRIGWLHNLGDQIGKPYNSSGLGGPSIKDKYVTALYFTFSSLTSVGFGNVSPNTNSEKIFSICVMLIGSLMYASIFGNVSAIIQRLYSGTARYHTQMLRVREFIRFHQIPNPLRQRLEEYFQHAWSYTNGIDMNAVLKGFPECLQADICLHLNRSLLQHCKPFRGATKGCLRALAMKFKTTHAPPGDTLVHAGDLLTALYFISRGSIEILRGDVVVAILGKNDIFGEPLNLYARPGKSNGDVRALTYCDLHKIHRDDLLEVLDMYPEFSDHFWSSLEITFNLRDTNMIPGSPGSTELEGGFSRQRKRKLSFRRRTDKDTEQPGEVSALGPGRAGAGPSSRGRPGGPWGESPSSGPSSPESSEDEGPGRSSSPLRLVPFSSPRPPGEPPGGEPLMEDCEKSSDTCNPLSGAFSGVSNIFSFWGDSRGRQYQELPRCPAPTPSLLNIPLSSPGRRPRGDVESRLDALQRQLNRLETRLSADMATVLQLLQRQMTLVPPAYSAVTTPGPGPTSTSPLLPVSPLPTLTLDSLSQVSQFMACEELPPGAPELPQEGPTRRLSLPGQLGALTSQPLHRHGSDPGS

Ki (Cyclophilin A (CypA); [9])	SMILES	Ki (CypD; [8])	hepatocyte CLint [2]	level at time molar at 24 h (in vivo)	level at 24 h (in vivo)	fraction unbound [3]	hepatocyte CLint [4]	Cl_obs [5]	inhibition at 25 µM (hERG)	AUC(0-inf) [6]	AUC(0-t) [6]	half-life [6]	CRC inhibition % [7]	further results
158 ± 43 nM	CC[C@@H]1NC(=O)[C@H]([C@H](O)[C@H](C)CC=CCCC[n+]2ccc(OCc3ccccc3)c3ccccc32)N(C)C(=O)[C@H](C(C)C)N(C)C(=O)[C@H](CC(C)C)N(C)C(=O)[C@H](CC(C)C)N(C)C(=O)[C@@H](C)NC(=O)[C@H](C)NC(=O)[C@H](CC(C)C)N(C)C(=O)[C@H](C(C)C)NC(=O)[C@H](CC(C)C)N(C)C(=O)CN(C)C1=O [TWH53]	–	–	–	–	–	–	–	–	–	–	–	18.46%	–
467 ± 85 nM	CC[C@@H]1NC(=O)[C@H]([C@H](O)[C@H](C)CC=CCCC[n+]2ccc(OCCOc3ccccc3)c3ccccc32)N(C)C(=O)[C@H](C(C)C)N(C)C(=O)[C@H](CC(C)C)N(C)C(=O)[C@H](CC(C)C)N(C)C(=O)[C@@H](C)NC(=O)[C@H](C)NC(=O)[C@H](CC(C)C)N(C)C(=O)[C@H](C(C)C)NC(=O)[C@H](CC(C)C)N(C)C(=O)CN(C)C1=O [TWH68]	–	–	–	–	–	–	–	–	–	–	–	17.71%	–

Further lines, the compound ahead of its results:

SMILES	Ki (Cyclophilin A (CypA); [9])	Ki (CypD; [8])	hepatocyte CLint [2]	level at time molar at 24 h (in vivo)	level at 24 h (in vivo)	fraction unbound [3]	hepatocyte CLint [4]	Cl_obs [5]	inhibition at 25 µM (hERG)	AUC(0-inf) [6]	AUC(0-t) [6]	half-life [6]	CRC inhibition % [7]	further results
CC[C@@H]1NC(=O)[C@H]([C@H](O)[C@H](C)C/C=C/CCC[n+]2ccc(NCCOc3ccccc3)c3ccccc32)N(C)C(=O)[C@H](C(C)C)N(C)C(=O)[C@H](CC(C)C)N(C)C(=O)[C@H](CC(C)C)N(C)C(=O)[C@@H](C)NC(=O)[C@H](C)NC(=O)[C@H](CC(C)C)N(C)C(=O)[C@H](C(C)C)NC(=O)[C@H](CC(C)C)N(C)C(=O)CN(C)C1=O [JP1-068]	–	–	–	–	–	–	–	–	–	–	–	–	–	Ki (Cyclophilin A (CypA); Table S3, 4-aza substituted quinolinium salts, fluorescence polarization, read-out: Ki (nM) CypA): 10 nM; Ki (CypD; Table S3, fluorescence polarization, biotinylated-CsA probe, read-out: Ki (nM) CypD): 38.1 nM; level at 1 h ([1]; brain, Brain ng/mL, 1 h): 110 ng/mL; level at 4 h ([1]; brain, Brain ng/mL): 76 ng/mL; level at 1 h ([1]; plasma, Plasma (ng/mL), 1 h): 6410 ng/mL; level at 4 h ([1]; plasma, Plasma (ng/mL)): 6250 ng/mL; Brain ([1]; 1 h): 110 ng/mL; IC50 (hERG): 1000 to 2000 nM
CC[C@@H]1NC(=O)[C@H]([C@H](O)[C@H](C)CC=CCCC[n+]2ccc(N3CCCC3)c3ccc(C(F)(F)F)cc32)N(C)C(=O)[C@H](C(C)C)N(C)C(=O)[C@H](CC(C)C)N(C)C(=O)[C@H](CC(C)C)N(C)C(=O)[C@@H](C)NC(=O)[C@H](C)NC(=O)[C@H](CC(C)C)N(C)C(=O)[C@H](C(C)C)NC(=O)[C@H](CC(C)C)N(C)C(=O)CN(C)C1=O [JP1-140]	–	76 ± 8 nM	–	–	–	–	–	–	–	–	–	–	–	–
CC[C@@H]1NC(=O)[C@H]([C@H](O)[C@H](C)C/C=C/CCC[n+]2ccc(N3CCCCC3)c3ccccc32)N(C)C(=O)[C@H](C(C)C)N(C)C(=O)[C@H](CC(C)C)N(C)C(=O)[C@H](CC(C)C)N(C)C(=O)[C@@H](C)NC(=O)[C@H](C)NC(=O)[C@H](CC(C)C)N(C)C(=O)[C@H](C(C)C)NC(=O)[C@H](CC(C)C)N(C)C(=O)CN(C)C1=O [JP1-166]	–	–	8.01 µL/min/1e6 cells	86 nM	124 ng/mL	0.43	9.47 µL/min/1e6 cells	1.67 × 10^−04 (mg/kg)/(ng/ml).hour	31.4%	59900 ng·h/mL	55000 ng·h/mL	6.75 h	–	Ki (Cyclophilin A (CypA); Table S7, focused SAR set, read-out: CypA Ki): 31 ± 3 nM
CC[C@@H]1NC(=O)[C@H]([C@H](O)[C@H](C)C/C=C/CCC[n+]2ccc(N(C)C)c3ccccc32)N(C)C(=O)[C@H](C(C)C)N(C)C(=O)[C@H](CC(C)C)N(C)C(=O)[C@H](CC(C)C)N(C)C(=O)[C@@H](C)NC(=O)[C@H](C)NC(=O)[C@H](CC(C)C)N(C)C(=O)[C@H](C(C)C)NC(=O)[C@H](CC(C)C)N(C)C(=O)CN(C)C1=O [JP1-180]	–	77 ± 46 nM	4.65 µL/min/1e6 cells	142 nM	196 ng/mL	0.17	4.07 µL/min/1e6 cells	1.61 × 10^−04 (mg/kg)/(ng/ml).hour	9.75%	62100 ng·h/mL	59300 ng·h/mL	5.06 h	–	–
